Assays:
Format in all cases: nucleic-acid assay
Conditions in all cases: Bos taurus
[1] = test system: Nucleic Acid; test: Delta Tm is the difference between the melting temperature of calf thymus DNA in the presence and absence of 2-peptide conjugate at a 10:1 ratio of DNA/drug
[2] = test system: Nucleic Acid; test: Percent maximum loss of ethidium bromide (EtBr) fluorescence bound to DNA (ratio 1:3) in presence of 2-peptide conjugate
[3] = test system: Nucleic Acid; test: Delta Tm is the difference between the melting temperature of calf thymus DNA in the presence and absence of 2-peptide conjugate at a 10:1ratio of DNA/drug

Substance	ΔTm [1]	Quench [2]	ΔTm [3]
H-AAKCRAA-OH	6		
H-AKCRA-OH	7.5		
H-AKCRDA-OH	5.5	5%	
H-AKCRDRA-OH	10.3		
H-AKCRKA-OH	7.3		
H-AKCRKRA-OH	9	45%	
H-AKSRA-OH	5.5		
H-ARCKA-OH			4.8
